Assays:
[1] = in ethanol; cited from earlier work
[2] = Photophysical properties (absorption, fluorescence, singlet oxygen production, lifetimes) in ethanol; type: physicochemical; details: for ϕF fluorescence quantum yield: ±0.02, reference tetraphenylporphyrin in toluene; for ϕΔ quantum yield (singlet oxygen production): ±0.05, reference Rose Bengal in ethanol; for τF fluorescence lifetime: ±0.1 ns; for τΔ singlet oxygen lifetime: ±1 μs
Procedure: The absorption spectra were measured with a UV-3600 double beam UV-visible spectrophotometer (Shimadzu, Marne La Vallée, France). The fluorescence spectra were measured with a Fluorolog FL3-222 spectrofluorimeter (Horiba Jobin Yvon, Longjumeau, France) equipped with a 450 W xenon arc lamp, with a thermostated (25° C.) cuvette holder compartment, with an R928 UV-visible photomultiplier (Hamamatsu, Japan) and with a liquid nitrogen-cooled InGaAs infrared detector (DSS-16A020L Electro-Optical System Inc, Phoenixville, PA, USA). The excitation beam is diffracted by a SPEX double-grating monochromator (1200 lines/mm blazed at 330 nm). The fluorescence was measured by the UV-visible detector via the SPEX double-grating emission monochromator (1200 lines/mm blazed at 500 nm). The production of singlet oxygen was measured by the infrared detector via the SPEX double-grating emission monochromator (600 lines/mm blazed at 1 μm) and a high-pass filter at 780 nm. All the spectra were measured using 4-face quartz cuvettes. All the emission spectra (singlet-oxygen fluorescence and luminescence) were related back to the same absorbance (less than 0.2) with the lamp and photomultiplier corrections.
The fluorescence quantum yield was determined by equation (1):
[formula] where Φf and Φfo, If and Ifo, OD and ODo, n and no, are the quantum yields, the fluorescence intensities, the optical densities, and the refractive indices of the sample and of the reference respectively.
The reference used for the calculation of the fluorescence quantum yield is tetraphenylporphyrin in toluene with a φfo of 0.11.
The quantum yield for singlet oxygen production is determined by equation (2):
[formula] where ΦΔ and ΦΔo, I and Io, OD and ODo are the quantum yields for singlet oxygen production, the singlet oxygen production intensities and the optical densities of the sample and of the reference respectively.
The reference used for the calculation of the quantum yield for singlet oxygen production is Rose Bengal in ethanol with a φΔo of 0.68.
The fluorescence lifetime experiments were carried out using, for the excitation, a pulsed laser diode emitting at 407 nm (LDH-P-C-400M, FWHM<70 ps, 1 MHz) coupled to a PDL 800-D pulse generator (PicoQuant GmbH, Berlin, Germany) and, for the detection, an SPCM-AQR-15 avalanche photodiode (EG & G, Vaudreuil, Canada) coupled to a high-pass filter at 650 nm.
The acquisition was carried out using a PicoHarp 300 module linked to a PHR-800 4-channel router (PicoQuant GmbH, Berlin, Germany). The fluorescence declines were recorded using the single photon counting method (Time Correlated Single Photon Counting TCSPC). The data were collected until 1000 accumulated counts in a channel were obtained, then analyzed using the TCSPC Fluofit software (PicoQuant GmbH, Berlin, Germany) based on an iterative reconvolution using a Levensberg-Marquandt algorithm which allows multiexponential declines to be obtained.
The singlet oxygen lifetime measurements were carried out with a Tempro-01 spectrophotometer (Horiba Jobin Yvon, Longjumeau, France) composed of a SpectraLED-415 pulsed excitation diode emitting at 415 nm, of a cuvette holder compartment, of an emission monochromator of Seya-Namioka type (600-2000 nm) and of an H10330-45 thermoelectrically regulated near infrared photomultiplier tube (Hamamatsu, Japan). The assembly is controlled by the FluoroHub-B counting module and the DataStation and DAS6 software (Horiba Jobin Yvon).
The emission spectra and the phosphorescence lifetime measurements were carried out with a Fluorolog FL3-22 spectrofluorimeter (Horiba Jobin Yvon, Longjumeau, France) equipped with a 450 W continuous xenon lamp, with a xenon flash lamp, with a thermostated (25° C.) cuvette holder compartment and with an R928 UV-visible photomultiplier (Hamamatsu, Japan). The assembly is controlled by the FluoroHub-B counting module. […]

O=C([O-])c1c(Cl)c(Cl)c(Cl)c(Cl)c1-c1c2cc(I)c(=O)c(I)c-2oc2c(I)c([O-])c(I)cc12.[Na+].[Na+] [Rose Bengal]
φΔo quantum yield for singlet oxygen production of the reference [1]: 0.68

pheophorbide-a [Pheo(a)-COOH]
εQI (molar extinction coefficient, QI band) [2]: 32 537 L · mol^−1 · cm^−1
εsoret band (molar extinction coefficient) [2]: 69 663 L · mol^−1 · cm^−1
λQI (QI band absorption peak) [2]: 667 nm
ϕF fluorescence quantum yield [2]: 0.44
ϕΔ quantum yield (singlet oxygen production) [2]: 0.52
τF fluorescence lifetime [2]: 5.7 ns
τΔ singlet oxygen lifetime [2]: 12 μs

pyropheophorbide-a [Pyro(a)-COOH]
εQI (molar extinction coefficient, QI band) [2]: 33 265 L · mol^−1 · cm^−1
εsoret band (molar extinction coefficient) [2]: 76 326 L · mol^−1 · cm^−1
λQI (QI band absorption peak) [2]: 668 nm
ϕF fluorescence quantum yield [2]: 0.34
ϕΔ quantum yield (singlet oxygen production) [2]: 0.52
τF fluorescence lifetime [2]: 6.7 ns
τΔ singlet oxygen lifetime [2]: 13 μs
